Among the data in PubChem BioAssay (NCI) are TGI values, retold here.

Holding throughout (assay): growth of human tumour cells (NCI), 48 h
Assay [1] relates to A498 renal.
In assay [2] the test system is CCRF-CEM leukemia.
Assay [3] deals with COLO 205 colon.
Assay [4] deals with HCT-116 colon.
Assay [5] has as its system HL-60(TB) leukemia.
The test system of assay [6] is HOP-92 NSCLC.
Assay [7] concerns LOX IMVI melanoma.
Assay [8] concerns MALME-3M melanoma.
Assay [9] has as its system MDA-MB-435.
Assay [10] has as its system MOLT-4 leukemia.
The subject of assay [11] is OVCAR-3 ovarian.
Assay [12] has as its system PC-3 prostate.
For assay [13], the system named is SK-OV-3 ovarian.
The subject of assay [14] is SN12C renal.
In assay [15] the test system is SR leukemia.
For assay [16], the system named is TK-10 renal.
Assay [17] deals with U251 CNS.
For assay [18], the system named is HCC-2998 colon.
For assay [19], the system named is NCI-H460 lung.

The structures appear in SMILES notation.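 Protocol summary: plate cells (96-well), add compound at 5 concentrations, incubate 48 h, interpolate endpoints linearly. TGI marks complete inhibition of growth.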 Bounds are passed on as bounds.

For the compound `CN(C)CCNC(=O)c1cccc2c(NCC(=O)O)c3ccccc3nc12`, the TGI in assay [1] was 57.9 µM; in [2], above 100 µM; in assay [3], above 100 µM; in assay [4], 67.4 µM; in assay [5], above 100 µM; in assay [6] it was above 100 µM. The TGI in assay [7] is above 100 µM; in [8], 35.9 µM; in [9], 32.9 µM; in assay [10], above 100 µM; in assay [11] it was above 100 µM; in assay [12], 55.2 µM. Further, the TGI in assay [13], in [14], in [15], in assay [16] and in assay [17] was above 100 µM throughout.
With `CC12Nc3ccccc3N1C(=O)c1ccccc12` (stereo not given), the TGI in assay [1], in [2], in assay [3], in assay [18], in [4] and in [5] was above 100 µM in each case. Also, the TGI in assay [6], in assay [7], in [9], in assay [10], in assay [19] and in assay [11] was above 100 µM throughout. Further, the TGI in assay [12], in assay [13], in assay [14], in [15], in assay [16] and in assay [17] was above 100 µM each time.
For `CSc1nc(N)c(NC2OC(CO)C(O)C2O)c(=O)[nH]1` (stereo not given), the TGI in assay [1], in [2], in [3], in [4], in [5] and in assay [7] was above 100 µM in each case. Also, the TGI in [8], in assay [9], in assay [10], in assay [19], in [11] and in assay [12] was above 100 µM throughout. The TGI in assay [13], in assay [14], in assay [15], in assay [16] and in assay [17] was above 100 µM in each case.
Take `Cc1c(/C=N/NC(=S)Nc2ccccc2Cl)c(=O)n(-c2ccccc2)n1C`: the TGI in [1], in assay [2], in [3], in assay [4], in assay [5] and in assay [7] was above 100 µM throughout. Moreover, the TGI in [8] was 79.9 µM; in [9], above 100 µM; in assay [10], above 100 µM; in assay [19], above 100 µM; in [11], above 100 µM; in assay [12], above 100 µM. Moreover, the TGI in assay [13] is 82.5 µM; in assay [14] it was above 100 µM; in [15], above 100 µM; in [16], 91.7 µM; in assay [17], above 100 µM.
Take `COc1cc(/C=C2/CCS(=O)(=O)c3ccc(C)cc3C2=O)cc(OC)c1OC`: the TGI was 23.7 µM in [1]; above 100 µM in assay [2]; 16.9 µM in assay [3]; above 35.7 µM in assay [18]; 11.2 µM in assay [4]; above 43.2 µM in assay [6]. For the same compound, the TGI in assay [7] was 6.4 µM; in assay [8], above 36.3 µM; in assay [9] it was above 27.2 µM; in assay [10], above 100 µM; in [19], 13.5 µM; in [11], 20.1 µM. Further, the TGI in assay [12] was above 100 µM; in [13] it was 37.8 µM; in assay [14], 21.9 µM; in assay [15] it was 7.13 µM; in assay [16], above 44.5 µM; in assay [17], above 31 µM.
As for `CCCCCC/C=C\CCCCCCCCCc1cccc(O)c1C(=O)O`, the TGI in [1], in assay [2], in assay [3], in assay [18], in assay [4] and in assay [5] was above 100 µM throughout. Also, the TGI in [6], in assay [8], in [9], in assay [10], in [19] and in [11] was above 100 µM throughout. In addition, the TGI in assay [12], in assay [13], in [14], in [15], in assay [16] and in assay [17] was above 100 µM each time.
With `CC1(C)CC(=O)c2c(nc3ccc4ccccc4c3c2-c2ccc(NC(=O)CCCC(=O)Nc3ccc(-c4c5c(nc6ccc7ccccc7c46)CC(C)(C)CC5=O)cc3)cc2)C1`, the TGI in assay [1], in [2], in assay [3], in assay [4], in assay [5] and in assay [6] was above 100 µM in each case. In addition, the TGI in assay [7], in assay [9], in assay [10], in assay [19], in [11] and in [12] was above 100 µM in each case. Moreover, the TGI in [13], in [14], in assay [15], in assay [16] and in assay [17] was above 100 µM throughout.
In the case of `COc1ccc(N2C(=O)C3c4[nH]c5ccc(C)cc5c4C4CCC(C)CC4C3C2=O)cc1` (stereo not given), the TGI in [1] is 85 µM; in [2], above 100 µM; in assay [3], above 100 µM; in assay [4], above 100 µM; in assay [6], above 100 µM; in [7] it was above 100 µM. For the same compound, the TGI in [8], in assay [9], in [10], in assay [19], in assay [11] and in [12] was above 100 µM in each case. The TGI in assay [13], in [14], in assay [15], in assay [16] and in assay [17] was above 100 µM each time.
Regarding `CN(C)c1ccc(N=Nc2ccc3nc[nH]c3c2)cc1`, the TGI in [1] was 41.5 µM; in assay [2], above 100 µM; in assay [3], 50.4 µM; in assay [4], 38.8 µM; in assay [5], above 100 µM; in [8], 53 µM. Moreover, the TGI in [9] is 47.7 µM; in [10] it was above 100 µM; in [19], 37.4 µM; in assay [12], above 100 µM; in [14] it was 71 µM; in assay [15], 87.5 µM. In addition, the TGI in assay [16] is 52.8 µM; in [17], 76.4 µM.
With `C/C(=N\Nc1nc2ccccc2s1)c1ncccn1`, the TGI was above 100 µM in assay [1]; above 100 µM in assay [2]; 1.19 µM in assay [3]; 11.9 µM in assay [18]; above 100 µM in [5]; 1.1 µM in [6]. Further, the TGI in assay [8] is above 100 µM; in assay [9], above 100 µM; in [10], above 53.9 µM; in [19], 15.6 µM; in [11] it was 2.06 µM; in [12], 11.1 µM. For the same compound, the results for the TGI in assay [14], in [15] and in assay [17] were 25.2 µM, 8.7 µM and above 100 µM, respectively.
As to `CC1CCCc2c(C#N)c(N)nc(-c3ccc(Cl)cc3)c21` (stereo not given), the TGI was above 100 µM in assay [1]; above 100 µM in [2]; 67.7 µM in assay [3]; above 100 µM in assay [4]; 83.3 µM in assay [5]; 36.3 µM in assay [7]. Besides, the TGI in [8] is 85.1 µM; in assay [9], above 100 µM; in [10] it was 43.2 µM; in [19], 59 µM; in assay [11], 44.4 µM; in assay [12] it was 42.9 µM. The TGI in assay [13] was above 100 µM; in assay [14], 38.2 µM; in assay [15], 72.8 µM; in assay [16] it was above 100 µM; in assay [17], above 100 µM.
Consider `O=[N+]([O-])/C=C1\COCc2cc3c(cc21)OCO3`, for which the TGI was 42 µM in [1]; 39.1 µM in [2]; 42 µM in [3]; 32.9 µM in assay [18]; 39.6 µM in assay [4]; 57.4 µM in assay [5]. Also, the TGI in [6] was above 100 µM; in [7], 71.5 µM; in [9] it was 28.2 µM; in [10], above 100 µM; in assay [19] it was 93.8 µM; in assay [11] it was 35.9 µM. In addition, the TGI in assay [12] was 25.6 µM; in [13] it was above 100 µM; in assay [14] it was 47.2 µM; in assay [15], 61.4 µM; in assay [16], 50 µM; in assay [17] it was 36.5 µM.
In the case of `C=Cc1c(C)c(OC)cc2c1Oc1ccc(OC)c(C)c1CC2`, the TGI in assay [1], in [2], in assay [3], in [18], in assay [4] and in assay [5] was above 100 µM each time. In addition, the TGI in assay [6], in [8], in assay [9], in assay [10], in assay [19] and in assay [12] was above 100 µM each time. Further, the TGI in [13], in [14], in assay [15], in assay [16] and in assay [17] was above 100 µM throughout.
In the case of `CCOC(=O)CSc1nc(-c2ccccc2)c(C#N)c(=O)[nH]1`, the TGI in assay [1], in assay [2], in assay [3], in assay [18], in assay [4] and in assay [5] was above 100 µM in each case. Further, the TGI in [6], in [9], in assay [10], in [19], in [11] and in assay [12] was above 100 µM throughout. The TGI in assay [13], in assay [14], in assay [15], in assay [16] and in assay [17] was above 100 µM each time.
In the case of `CC(=O)OCC(OC(C)=O)C(OC(C)=O)C(C=NN(C(C)=O)S(=O)(=O)c1ccc(/C=C2\NC(=O)NC2=O)cc1)OC(C)=O` (stereo not given), the TGI in [1], in assay [2], in [3], in [18], in assay [4] and in assay [8] was above 100 µM throughout. For the same compound, the TGI in assay [9], in assay [10], in assay [19], in [11], in assay [12] and in assay [13] was above 100 µM each time. In addition, the TGI in assay [14], in assay [15], in assay [16] and in assay [17] was above 100 µM throughout.
On to `O=c1cc(-c2cccc(Cl)c2)[nH]c2ncccc12`, for which the TGI in assay [1] was above 100 µM; in assay [2], above 100 µM; in assay [4], 1.17 µM; in [5], 0.152 µM; in assay [6] it was above 100 µM; in assay [7], above 100 µM. Also, the TGI is above 100 µM in assay [8]; 0.0382 µM in [9]; above 24.8 µM in [10]; above 100 µM in assay [19]; 0.957 µM in assay [11]; 0.0694 µM in assay [12]. The TGI is above 100 µM in [13]; 30.5 µM in [14]; above 100 µM in assay [15]; above 100 µM in [16]; 29.3 µM in [17].
